{"source": "paper PMC6982022", "about": "(International Journal of Molecular Sciences, 2019)", "test_system": "adult male CD rats", "experiment": "Parameters measured at necropsy at end of fertility trial (week 11)", "type": "in vivo, rat", "excerpt": "Rats were weighed on day 0 (first day of dosing) and weekly thereafter. Dosages were adjusted based on the most recent body weight. Males were cohabited with untreated females (one male per two females) weekly at weeks 1 through 9 [38, 39]. Females were necropsied seven days after separation from males to determine the numbers of implantation sites. Individual male rats were bled from the tail vein at weeks 0, 1, 4, and 7 and serum was harvested by centrifugation. At week 11, the male rats were weighed, anesthetized, and exsanguinated. Sera were analyzed for inhibin B by ELISA (enzyme-linked immunosorbent assay), and rat follicle stimulating hormone (rFSH) and testosterone by radioimmunoassay. Testes, epididymides, ventral prostates, and seminal vesicles were excised and weighed. The left testis was homogenized, and spermatid head counts obtained.\nSperm were obtained from the left cauda epididymis and evaluated for sperm motility, as follows. The cauda epididymis was punctured with an 18-gauge needle and sperm expressed into the well of a culture slide. The sperm were diluted with capacitation buffer containing 0.1% BSA to obtain about 20–40 sperm per field as viewed in the inverted microscope. The number of motile and non-motile sperm was determined, and the percent of motile sperm were calculated. A smear of the diluted sperm was also prepared and used to assess sperm morphology under phase contrast. The percent of normal/abnormal sperm were calculated.\nStatistical analysis using the Student’s t-test was performed on body weights, paired testes weights, ventral prostrate weights, seminal vesicle weights, paired epididymal weights, spermatid head counts, percent motile and normal epididymal sperm. We used analysis of variance (ANOVA) for serum inhibin B, rFSH, and testosterone, since these measurements were repeated throughout the study period. The effect of NB-DNJ at 15 mg/kg/day dose in the rat model was studied following the same protocol as that for NB-DGJ.", "key": {"[1]": {"conditions": "150 mg/kg/day on days 0-34, week 11, n = 6"}}, "note": "Values joined by “and” are separate entries in the source; they are usually repeats but may differ in a detail not shown here. Equal values may be shown once.", "data": [{"compound": "CCCCN1C[C@H](O)[C@@H](O)[C@@H](O)[C@H]1CO", "note": "[NB-DGJ, N-butyldeoxygalactonojirimycin]", "values": [{"measurement": "Final Body Weight Week 11 (g ± SE)", "setting": "150 mg/kg/day on days 0-34, n = 6", "value": "572 ± 17", "unit": "g"}, {"measurement": "Ventral prostate weight versus vehicle", "setting": "150 mg/kg/day on days 0-34, week 11, Student's t-test", "value": "No significant difference"}, {"measurement": "Mean Epididymal Sperm Motility (%)", "setting": "[1]", "value": "60% and 60 ± 3 %"}, {"measurement": "Mean Epididymal Sperm with Normal Morphology (% ± SE)", "setting": "[1]", "value": "72 ± 1", "unit": "%"}, {"measurement": "Mean Paired Epididymal Weight (g ± SE)", "setting": "[1]", "value": "1.64 ± 0.03", "unit": "g"}, {"measurement": "Mean Paired Testis Weight (g ± SE)", "setting": "[1]", "value": "3.80 ± 0.11", "unit": "g"}, {"measurement": "Mean Seminal Vesicle Weight with Coagulating Gland", "setting": "[1]", "value": "1.40 ± 0.11", "unit": "g"}, {"measurement": "Mean Spermatid Head Count/Testis", "setting": "[1]", "value": "123.59 ± 3.73", "unit": "Cells × 10^6"}]}]}
